Results as given in patent US11098055B2, “Ester ACC inhibitors and uses thereof” (Gilead Apollo, LLC, priority 2015, dated 2021).
Where two headings read alike, the source gives them in different places.

How the values were obtained:
Test in all cases: Growth inhibition assay of fungal pathogens
Format in all cases: cell-based
[1] = test system: Fusarium moniliforme (Fm); settings: Fusarium verticillioides, 48 h, read-out: Concentration at 90% Inhibition Fm
Description: (§1) Compounds of the present invention were evaluated in a growth inhibition assay to determine the ability to control the growth of fungal pathogens, such as Botrtyis cinerea (Bc), Collectotrichum graminicola (Cg), Diplodia maydis (Dm), Fusarium moniliforme (Fm), Fusarium virguhforme (Fv), Phytophthora capsici (Pc), Rhizoctonia solani (Rs), and Septoria tritici (St). Compounds to be tested were dissolved in DMSO at 2.5 mg/ml to produce compound stock solutions (“stocks”). Stocks were diluted with DMSO by a five-fold dilution in a 96-well stock plate, and two sets of final concentrations of 50, 10, and 2 ppm or 2, 0.4, and 0.08 ppm were obtained in vitro. A set of positive controls was also prepared, with various concentrations of Soraphen (2, 0.4, and 0.08 ppm), Metalaxyl (1.1, 0.22, and 0.04 ppm), and Metconazole (2, 0.4, and 0.08 ppm or 0.2, 0.04, and 0.008 ppm) after the five-fold dilutions. Negative controls on each plate included 2% DMSO, water, and a blank (media+2% DMSO). Fungal spores were isolated from previously sub-cultured plates of Botrtyis cinerea (Bc), Collectotrichum graminicola (Cg), Diplodia maydis (Dm), Fusarium moniliforme (Fm), Fusarium virguliforme (Fv), Phytophthora capsici (Pc), and Septoria tritici (St). The isolated spores were diluted to individual concentrations with a 17% V8 liquid media. For Rhizoctonia solani (Rs) and Pythium irregulare, 1.5 mm mycelial plugs were used in place of spores and ¼ Potato Dextrose Broth (PDB) was used for dilution. The spore concentrations and plug sizes were based on growth curves generated at 48 hours for each pathogen. In a second 96-well plate, the spores or mycelial plugs, media, diluted compound solutions, and controls were combined. Once the compound was added, a true final concentration of compound in each well was measured by an OD600 reading, which adjusted for any compound precipitation that might have occurred in the well. Plate readings were repeated at both 24 and 48 hours. The blank negative control was used as a background subtraction. Additional visual ratings were performed at both 24 and 48 hours for checking on precipitation and confirming efficacy. Visual and OD600 ratings of the compounds at 48 hours were compared to the 2% DMSO negative control, and the percent of pathogen growth inhibition was determined based on those values.

[2] = test system: Septoria tritici (St); settings: Zymoseptoria tritici, 48 h, read-out: Concentration at 90% Inhibition St
Description: as §1

[3] = test system: Diplodia maydis (Dm); settings: Stenocarpella maydis, 48 h, read-out: Concentration at 90% Inhibition Dm
Description: as §1

[4] = test system: Rhizoctonia solani (Rs); settings: 48 h, read-out: Concentration at 90% Inhibition Rs
Description: as §1

[5] = test system: Botrtyis cinerea (Bc); settings: 48 h, read-out: Concentration at 90% Inhibition Bc
Description: as §1

[6] = test system: Collectotrichum graminicola (Cg); settings: 48 h, read-out: Concentration at 90% Inhibition Cg
Description: as §1

[7] = test system: Fusarium virguliforme (Fv); settings: 48 h, read-out: Concentration at 90% Inhibition Fv
Description: as §1

[8] = test system: Phytophthora capsici (Pc); settings: 48 h, read-out: Concentration at 90% Inhibition Pc
Description: as §1

Measured: IC90

CCOC(=O)c1sc2c(c1C)c(=O)n([C@@H](C)C(=O)N1CCCC1)c(=O)n2C[C@H](OCCC#N)c1cc(F)ccc1OC [Compound I-23, ethyl 1-((R)-2-(2-cyanoethoxy)-2-(5-fluoro-2-methoxy-phenyl)ethyl)-5-methyl-2,4-dioxo-3-((S)-1-oxo-1-(pyrrolidin-1-yl)propan-2-yl)-1,2,3,4-tetrahydrothieno[2,3-d]pyrimidine-6-carboxylate]
≥ 50 µg/mL: [2]; Table 4b | [6]; Table 4b | [7]; Table 4b | [8]; Table 4b
10 µg/mL: [3]; Table 4b | [4]; Table 4b | [5]; Table 4b
2 µg/mL: [1]; Table 4b

CCOC(=O)c1sc2c(c1C)c(=O)n(C(C)(C)C(=O)N1CCCC1)c(=O)n2C[C@H](OCCOC)c1cc(F)ccc1OC [Compound I-13, (R)-ethyl 1-(2-(5-fluoro-2-methoxyphenyl)-2-(2-methoxy-ethoxy)ethyl)-5-methyl-3-(2-methyl-1-oxo-1-(pyrrolidin-1-yl)propan-2-yl)-2,4-dioxo-1,2,3,4-tetrahydrothieno[2,3-d]pyrimidine-6-carboxylate]
2 µg/mL: [5]; Table 4a | [5]; Table 4b | [6]; Table 4a | [6]; Table 4b | [7]; Table 4a | [7]; Table 4b
0.4 µg/mL: [1]; Table 4a | [1]; Table 4b
≥ 50 µg/mL: [2]; Table 4a | [2]; Table 4b | [3]; Table 4a | [4]; Table 4a | [8]; Table 4a | [8]; Table 4b
10 µg/mL: [3]; Table 4b | [4]; Table 4b

CCNC(=O)[C@@H](C)n1c(=O)c2c(C)c(C(=O)OCC)sc2n(C[C@H](OCCC#N)c2cc(F)ccc2OC)c1=O [Compound I-41, ethyl 1-((R)-2-(2-cyanoethoxy)-2-(5-fluoro-2-methoxy-phenyl)ethyl)-3-((R)-1-(ethylamino)-1-oxopropan-2-yl)-5-methyl-2,4-dioxo-1,2,3,4-tetrahydrothieno[2,3-d]pyrimidine-6-carboxylate]
10 µg/mL: [5]; Table 4b | [6]; Table 4b
≥ 50 µg/mL: [2]; Table 4b | [3]; Table 4b | [4]; Table 4b | [7]; Table 4b | [8]; Table 4b
2 µg/mL: [1]; Table 4b

CCOC(=O)c1sc2c(c1C)c(=O)n(C(C)(C)C(=O)NC(C)C)c(=O)n2C[C@H](OCCO)c1cc(F)ccc1OC [Compound I-18, (R)-ethyl 1-(2-(5-fluoro-2-methoxyphenyl)-2-(2-hydroxy-ethoxy)ethyl)-3-(1-(isopropylamino)-2-methyl-1-oxopropan-2-yl)-5-methyl-2,4-dioxo-1,2,3,4-tetrahydrothieno[2,3-d]pyrimidine-6-carboxylate]
0.08 µg/mL: [1]; Table 4a | [1]; Table 4b | [4]; Table 4a | [4]; Table 4b
0.4 µg/mL: [3]; Table 4a | [3]; Table 4b | [6]; Table 4a | [6]; Table 4b
2 µg/mL: [5]; Table 4a | [5]; Table 4b | [7]; Table 4a | [7]; Table 4b
≥ 50 µg/mL: [2]; Table 4a | [2]; Table 4b | [8]; Table 4a | [8]; Table 4b

CCNC(=O)C(C)(C)n1c(=O)c2c(C)c(C(=O)OCC)sc2n(C[C@H](O)c2cc(F)ccc2OC)c1=O [Compound I-39, ethyl (R)-3-(1-(ethylamino)-2-methyl-1-oxopropan-2-yl)-1-(2-(5-fluoro-2-methoxyphenyl)-2-hydroxyethyl)-5-methyl-2,4-dioxo-1,2,3,4-tetrahydrothieno[2,3-d]pyrimidine-6-carboxylate]
0.08 µg/mL: [4]; Table 4b
10 µg/mL: [5]; Table 4b
2 µg/mL: [1]; Table 4b | [7]; Table 4b
≥ 50 µg/mL: [2]; Table 4b | [3]; Table 4b | [6]; Table 4b | [8]; Table 4b

CCOC(=O)c1sc2c(c1C)c(=O)n(C(C)(C)C(=O)NC(C)C)c(=O)n2C[C@H](OC(C)C)c1ccccc1OC [Compound I-9, (R)-ethyl 1-(2-isopropoxy-2-(2-methoxyphenyl)ethyl)-3-(1-(isopropylamino)-2-methyl-1-oxopropan-2-yl)-5-methyl-2,4-dioxo-1,2,3,4-tetrahydrothieno[2,3-d]pyrimidine-6-carboxylate]
0.4 µg/mL: [3]; Table 4a | [3]; Table 4b | [5]; Table 4a | [5]; Table 4b | [7]; Table 4a | [7]; Table 4b
10 µg/mL: [4]; Table 4b
0.08 µg/mL: [1]; Table 4a | [1]; Table 4b
2 µg/mL: [6]; Table 4a | [6]; Table 4b
≥ 50 µg/mL: [2]; Table 4a | [2]; Table 4b | [4]; Table 4a | [8]; Table 4a | [8]; Table 4b

CCOC(=O)c1sc2c(c1C)c(=O)n([C@H](C)C(N)=O)c(=O)n2C[C@H](OCCC#N)c1cc(F)ccc1OC [Compound I-26, ethyl 3-((R)-1-amino-1-oxopropan-2-yl)-1-((R)-2-(2-cyanoethoxy)-2-(5-fluoro-2-methoxyphenyl)ethyl)-5-methyl-2,4-dioxo-1,2,3,4-tetrahydrothieno[2,3-d]pyrimidine-6-carboxylate]
10 µg/mL: [1]; Table 4b | [5]; Table 4b
≥ 50 µg/mL: [2]; Table 4b | [3]; Table 4b | [6]; Table 4b | [7]; Table 4b | [8]; Table 4b
2 µg/mL: [4]; Table 4b

CCOC(=O)c1sc2c(c1C)c(=O)n(C(C)(C)C(N)=O)c(=O)n2C[C@H](OCCO)c1cc(F)ccc1OC [Compound I-17, (R)-ethyl 3-(1-amino-2-methyl-1-oxopropan-2-yl)-1-(2-(5-fluoro-2-methoxyphenyl)-2-(2-hydroxyethoxy)ethyl)-5-methyl-2,4-dioxo-1,2,3,4-tetrahydro-thieno[2,3-d]pyrimidine-6-carboxylate]
10 µg/mL: [5]; Table 4b
2 µg/mL: [1]; Table 4a | [1]; Table 4b | [4]; Table 4a | [4]; Table 4b
≥ 50 µg/mL: [2]; Table 4a | [2]; Table 4b | [3]; Table 4a | [3]; Table 4b | [5]; Table 4a | [6]; Table 4a | [6]; Table 4b | [7]; Table 4a | [7]; Table 4b | [8]; Table 4a | [8]; Table 4b

CCOC(=O)c1sc2c(c1C)c(=O)n(C(C)(C)C(=O)NC(C)C)c(=O)n2C[C@H](O)c1cc(F)ccc1OC [Compound I-19, (R)-ethyl 1-(2-(5-fluoro-2-methoxyphenyl)-2-hydroxyethyl)-3-(1-(isopropylamino)-2-methyl-1-oxopropan-2-yl)-5-methyl-2,4-dioxo-1,2,3,4-tetrahydrothieno[2,3-d]pyrimidine-6-carboxylate]
≥ 50 µg/mL: [2]; Table 4a | [2]; Table 4b | [8]; Table 4a | [8]; Table 4b
0.08 µg/mL: [1]; Table 4a | [1]; Table 4b | [7]; Table 4a | [7]; Table 4b
2 µg/mL: [3]; Table 4a | [3]; Table 4b | [6]; Table 4a | [6]; Table 4b
0.4 µg/mL: [4]; Table 4a | [4]; Table 4b | [5]; Table 4a | [5]; Table 4b

CCOC(=O)c1sc2c(c1C)c(=O)n(C(C)(C)C(=O)N1CCCCC1)c(=O)n2C[C@H](OC1CCOCC1)c1ccccc1OC [Compound I-2, ethyl (R)-1-(2-(2-methoxyphenyl)-2-((tetrahydro-2H-pyran-4-yl)oxy)ethyl)-5-methyl-3-(2-methyl-1-oxo-1-(piperidin-1-yl)propan-2-yl)-2,4-dioxo-1,2,3,4-tetrahydrothieno[2,3-d]pyrimidine-6-carboxylate]
0.4 µg/mL: [1]; Table 4a | [1]; Table 4b | [4]; Table 4b | [5]; Table 4a | [5]; Table 4b | [6]; Table 4a | [6]; Table 4b | [7]; Table 4a | [7]; Table 4b
10 µg/mL: [2]; Table 4b
2 µg/mL: [3]; Table 4a | [3]; Table 4b | [4]; Table 4a
≥ 50 µg/mL: [2]; Table 4a | [8]; Table 4a | [8]; Table 4b
